Where two headings read alike, the source gives them in different places.
Biological target: T1, E. coli DdlB enzyme (D-alanine:D-alanine ligase) (Escherichia coli, UniProt P07862)
T1 construct: made in house; host or cells: E. coli
Assay: biochemical
Details: for remaining activity at 1700 µM: tested concentration 1.7 mM; for remaining activity at 2100 µM: tested concentration 2.1 mM; for remaining activity at 2600 µM: tested concentration 2.6 mM; for remaining activity at 2000 µM: tested concentration 2.0 mM; for remaining activity at 2300 µM: tested concentration 2.3 mM; for remaining activity at 1900 µM: tested concentration 1.9 mM; for remaining activity at 2200 µM: tested concentration 2.2 mM; for remaining activity at 2900 µM: tested concentration 2.9 mM

[1] = residual activity, read-out: DdlB RA
[2] = residual activity of DdlB, fragment library screening, tested concentration 2.5 mM, read-out: DdlB RA
[3] = tested concentration 2.5 mM, read-out: DdlB RA
[4] = fragment library screening, read-out: DdlB RA
[5] = fragment library screening, tested concentration 1.8 mM, read-out: DdlB RA

## O=C(O)c1ccn(COc2ccc(Cl)cc2Cl)n1 [Compound Y503-2333]
[1]
  remaining activity at 1700 µM: 96%

## COC(=O)c1cscc1N [FLD143]
[2]
  remaining activity at 2500 µM: 92%

## CCS(=O)(=O)N1CCc2[nH]c(-c3ccccc3)nc2C1 [Compound T147-0013]
[1]
  remaining activity at 2100 µM: 81%

## NC(=O)Nc1ccccc1 [FLD016]
[2]
  remaining activity at 2500 µM: 99%

## COc1cc(C#N)cc2[nH]c(=O)oc12 [Compound 8020-7090]
read-out: DdlB RA
  remaining activity at 2600 µM: 97%

## O=C(O)c1ccccc1NC(=O)N1CCOCC1 [Compound Y043-2494]
[1]
  remaining activity at 2000 µM: 96%

## Oc1ccccc1 [FLD105]
read-out: DdlB RA
  remaining activity at 2500 µM: 95%

## O=C1C(O)CC2c3ccccc3CC3(CCCC3)N12 (stereo not shown) [Compound 8014-1716]
read-out: DdlB RA
  remaining activity at 2300 µM: 85%

## CC1CCN(C(=O)C2N(C(C)C)C(=O)C23CCCC3)CC1 (stereo not shown) [Compound T964-0245]
[1]
  remaining activity at 2100 µM: 95%

## Cc1ccc(Nc2ncccc2S(N)(=O)=O)cc1 [Compound M784-3115]
read-out: DdlB RA
  remaining activity at 1900 µM: 85%

## COC(=O)Cn1nc(C(F)F)c2c1CCCC2 [Compound Y504-8961]
read-out: DdlB RA
  remaining activity at 2000 µM: 94%

## CC(=O)N1C(C(=O)O)CSC1c1ccc(C)cc1 (stereo not shown) [Compound C796-0200]
read-out: DdlB RA
  remaining activity at 1900 µM: 90%

## Cc1ccc([N+](=O)[O-])cc1S(=O)(=O)O [Compound 0804-0047]
read-out: DdlB RA
  remaining activity at 2300 µM: 93%

## Nn1cnnc1 [FLD138]
[2]
  remaining activity at 2500 µM: 96%

## O=C(Nc1nc[nH]n1)c1ccc(Cl)cc1 [Compound 8003-7117]
[1]
  remaining activity at 2200 µM: 103%

## N#Cc1c2c([nH]c(=O)c1C(=O)O)CCCCCC2 [Compound 8020-6316]
read-out: DdlB RA
  remaining activity at 2000 µM: 91%

## O=C(O)Cn1ccc(=O)[nH]c1=O [Compound D702-0091]
read-out: DdlB RA
  remaining activity at 2900 µM: 89%

## O=C(O)c1cccn2c(=O)c3cc(F)ccc3nc12 [Compound C200-9599]
[1]
  remaining activity at 1900 µM: 85%

## O=C(O)Cc1cccs1 [FLD146]
[2]
  remaining activity at 2500 µM: 95%

## NC1=NC(=O)CO1 [Compound 1318-0067]
Residual activity of DdlB, fragment library screening, tested concentration 5.0 mM, read-out: DdlB RA
  remaining activity at 5000 µM: 102%

## CNC(=O)C1CCCN(S(=O)(=O)c2cccs2)C1 (stereo not shown) [Compound D356-2306]
[1]
  remaining activity at 1900 µM: 86%

## Cc1cc2n(n1)CCC(=O)N2CCCC(=O)O [FF01-0590]
read-out: DdlB RA
  remaining activity at 2300 µM: 92%

## CN1CCC(Oc2ncccc2C(=O)O)CC1 [Compound P391-0905]
read-out: DdlB RA
  remaining activity at 2100 µM: 92%

## CCCCCC(C)n1nc(O)cc1N (stereo not shown) [Compound D068-0217]
[3]
  remaining activity at 2500 µM: 103%

## Cc1ccc2ccc(S(=O)(=O)O)cc2c1 [Compound 1326-0466]
read-out: DdlB RA
  remaining activity at 2200 µM: 101%

## O=c1c(O)c(N2CCc3ccccc3C2)c1=O [Compound G317-0491]
read-out: DdlB RA
  remaining activity at 2200 µM: 90%

## CCNC(=O)N1CCC(c2noc(-c3ccccc3)n2)C1 (stereo not shown) [Compound S069-0392]
[1]
  remaining activity at 1900 µM: 94%

## O=c1c(NCc2ccccn2)c(-c2ccccc2)c1=O [Compound E470-0290]
read-out: DdlB RA
  remaining activity at 1900 µM: 96%

## OCCn1cc(Br)cn1 [Compound Y504-8814]
read-out: DdlB RA
  remaining activity at 2900 µM: 97%

## NS(=O)(=O)c1ccc2c(c1)OCCO2 [Compound 1313-0805]
read-out: DdlB RA
  remaining activity at 2300 µM: 88%

## Cc1cccc(-c2ccnc3c(C#N)cnn23)c1 [Compound 22, 7-(m-Tolyl)pyrazolo[1,5-a]pyrimidine-3-carbonitrile]
At 0.5 mM, read-out: DdlB inhibition, RA (Residual Activity)
  remaining activity at 500 µM: 100%

## CCn1nccc1[C@H](C)NC(=O)[C@H]1CCCC[C@H]1C(=O)O [Compound Y503-1571]
[4]
  remaining activity at 1700 µM: 93%

## CCN(C(=O)c1n[nH]cc1Cl)c1ccccc1 [Compound Y501-5069]
Tested concentration 2.4 mM, read-out: DdlB RA
  remaining activity at 2400 µM: 95%

## O=C1CSC2N1CCNC21CCCCC1 (stereo not shown) [Compound 8003-7360]
read-out: DdlB RA
  remaining activity at 2200 µM: 90%

## Nc1cccc([N+](=O)[O-])c1 [FLD061]
[2]
  remaining activity at 2500 µM: 98%

## O=C(O)c1ccccc1NCc1ccccc1Cl [Compound K783-0963]
[1]
  remaining activity at 1900 µM: 95%

## Cc1ccc(S(=O)(=O)N2CCOCC2)c(C)c1 [Compound 2488-0460]
read-out: DdlB RA
  remaining activity at 2200 µM: 90%

## O=C(O)c1cnc(-c2ccc(F)cc2)nc1 [Compound 8020-5433]
read-out: DdlB RA
  remaining activity at 2300 µM: 81%

## CCOc1ccc(NC(C)=O)cc1 [FLD064]
[2]
  remaining activity at 2500 µM: 98%

## COc1ccc(-c2c(Nc3cccc(C)c3)c(=O)c2=O)cc1 [Compound E470-1008]
read-out: DdlB RA
  remaining activity at 1700 µM: 100%

## CCCC(CCC)n1nc(O)cc1N [Compound D068-0218]
[3]
  remaining activity at 2500 µM: 100%

## CN1CCC2(CC1)CNCc1ccccc1O2 [Compound S530-0066]
read-out: DdlB RA
  remaining activity at 2200 µM: 94%

## O=C1CSCC(C(=O)O)N1 (stereo not shown) [FF01-5725]
Tested concentration 3.1 mM, read-out: DdlB RA
  remaining activity at 3100 µM: 107%

## CCc1ccc(S(N)(=O)=O)cc1N [Compound 8020-2865]
[3]
  remaining activity at 2500 µM: 97%

## O=C(O)c1c[nH]cn1 [FLD011]
[2]
  remaining activity at 2500 µM: 100%

## CC(Oc1ccccc1)C(=O)O (stereo not shown) [FLD019]
[2]
  remaining activity at 2500 µM: 99%

## O=C1Nc2ncccc2OC1c1ccccc1 (stereo not shown) [FF01-0341]
read-out: DdlB RA
  remaining activity at 2200 µM: 106%

## O=S(=O)(c1ncn[nH]1)N1CCOCC1 [Compound 8013-0403]
[1]
  remaining activity at 2300 µM: 95%

## COc1cc(OC)c2cc(C(=O)O)[nH]c2c1 [Compound 8017-9359]
[1]
  remaining activity at 2300 µM: 104%

## O=C(O)CCc1cc(=O)[nH]o1 [Compound 8019-7777]
Tested concentration 3.2 mM, read-out: DdlB RA
  remaining activity at 3200 µM: 91%

## Cc1ccc(O)c(C)c1 [FLD165]
[2]
  remaining activity at 2500 µM: 91%

## CC1(C)Cc2[nH]c(=O)c(C(=O)O)cc2CO1 [Compound 4965-0162]
[1]
  remaining activity at 2200 µM: 93%

## N#Cc1ccc(F)c(F)c1 [FLD163]
[2]
  remaining activity at 2500 µM: 95%

## Cc1cc(C)n(CCN2CCOCC2)n1 [FF20-3241]
read-out: DdlB RA
  remaining activity at 1900 µM: 86%

## NC(=O)c1cccnc1 [FLD031]
[2]
  remaining activity at 2500 µM: 100%

## Nc1cc[nH]c(=O)n1 [FLD053]
[2]
  remaining activity at 2500 µM: 100%

## CCS(=O)(=O)N1CCCc2cc(C(=O)NC)ccc21 [Compound D348-0142]
[1]
  remaining activity at 2100 µM: 92%

## CCS(=O)(=O)N1CC2(CC(N3CCCC3)CO2)C1 (stereo not shown) [SA46-1771]
Residual activity, tested concentration 1.8 mM, read-out: DdlB RA
  remaining activity at 1800 µM: 90%

## Nc1ncnc2[nH]c(N3CCOCC3)nc12 [Compound 8001-0336]
[1]
  remaining activity at 2300 µM: 98%

## Cc1noc(C)c1S(=O)(=O)N1CC(n2ccnc2)C1 [Compound S695-2555]
[1]
  remaining activity at 2100 µM: 97%

## Cn1nc(CCC(=O)N2CCNC(=O)C2)c2c1CCOC2 [SD48-0069]
[1]
  remaining activity at 2100 µM: 99%

## Cc1cccc(C)c1NC(=O)C[C@H](NCCO)C(=O)O [Compound 4553-3784]
[5]
  remaining activity at 1800 µM: 102%

## Cc1nn(C)cc1-c1ccnc2c(C(=O)O)cnn12 [Compound 17, 7–(1,3-Dimethyl-1H-pyrazol-4-yl)pyrazolo[1,5-a]pyrimidine-3-carboxylic acid]
  DdlB dose-response curve shape: Nonsigmoidal curve
At 5 mM, read-out: DdlB inhibition, RA (Residual Activity)
  remaining activity at 5000 µM: 26%

## CC1SC(c2ccc(Cl)c(Cl)c2)NC1=O (stereo not shown) [Compound 8011-7610]
read-out: DdlB RA
  remaining activity at 1900 µM: 80%

## O=c1c(O)c(NCc2ccco2)c1=O [Compound G317-0464]
read-out: DdlB RA
  remaining activity at 2600 µM: 89%

## O=C(O)CCCc1nc2ccccc2c(=O)n1C1CC1 [Compound Y042-5065]
[5]
  remaining activity at 1800 µM: 92%

## NC(=S)Nc1ccc(F)cc1 [FLD107]
[2]
  remaining activity at 2500 µM: 95%

## CNC(=O)c1cc(C)nc2ccc(C(C)C)cc12 [Compound Z601-7136]
read-out: DdlB RA
  remaining activity at 2100 µM: 97%

## Cn1c(-c2ccco2)nnc1S(=O)(=O)O [Compound 8020-6142]
read-out: DdlB RA
  remaining activity at 2200 µM: 90%

## O=C(O)c1ccc(N2Cc3ccccc3C2=O)cc1 [Compound Y042-2866]
[4]
  remaining activity at 2000 µM: 82%

## O=C(Cc1ccccc1)NCC1CCOCC1 [Compound P970-0162]
read-out: DdlB RA
  remaining activity at 2600 µM: 92%

## CC1(C(=O)O)CCCCC(=O)N1 (stereo not shown) [Compound S515-0278]
read-out: DdlB RA
  remaining activity at 2900 µM: 93%

## CSc1nc(N)n[nH]1 [FLD128]
[2]
  remaining activity at 2500 µM: 97%

## CCc1cccc(N)n1 [FLD162]
[2]
  remaining activity at 2500 µM: 100%

## COC(=O)C(O)(c1cc(C)c(N)c(C)c1)C(F)(F)F (stereo not shown) [Compound 8015-4257]
read-out: DdlB RA
  remaining activity at 1800 µM: 94%

## O=C(O)c1cc(S(=O)(=O)N2CCOCC2)ccc1O [Compound 1494-0564]
[1]
  remaining activity at 1700 µM: 92%

## CCOC1CN=C2C(C#N)=CC=CN21 (stereo not shown) [Compound Y600-6204]
read-out: DdlB RA
  remaining activity at 2200 µM: 92%

## CC(=O)N1CCC(=O)CC1 [FLD190]
[2]
  remaining activity at 2500 µM: 100%

## N#Cc1ccc(N2CCCNCC2)nc1 [FLD124]
[2]
  remaining activity at 2500 µM: 62%

## N#Cc1ccc(CCO)cc1 [FLD149]
[2]
  remaining activity at 2500 µM: 100%

## Nc1ccc(Br)cc1N [FLD118]
[2]
  remaining activity at 2500 µM: 90%

## CC(C)(C)NS(=O)(=O)c1ccccc1 [Compound 0896-4384]
Tested concentration 2.8 mM, read-out: DdlB RA
  remaining activity at 2800 µM: 95%

## CC(C)(C)C(N)Cn1cccn1 (stereo not shown) [Compound 8014-1588]
Residual activity of DdlB, fragment library screening, read-out: DdlB RA
  remaining activity at 2100 µM: 99%

## COc1cc(C#N)ccc1C [FLD012]
[2]
  remaining activity at 2500 µM: 51%

## Cc1ccc(-c2noc(C(=O)O)n2)cc1 [Compound Y501-1890]
[3]
  remaining activity at 2500 µM: 77%

## Oc1cccc2[nH]ccc12 [FLD010]
[2]
  remaining activity at 2500 µM: 100%

## O=C(O)Cn1nnc(-c2ccccc2Cl)n1 [Compound 8007-4998]
read-out: DdlB RA
  remaining activity at 2100 µM: 93%
